In one test the test system is P. knowlesi A1-H.1. In words: In vitro antiplasmodial activity, P. knowlesi A1-H.1 (SYBR Green I). In kind it is cell-based, Plasmodium knowlesi. Particulars: Plasmodium knowlesi, 27 h, read-out: Activity against P. knowlesi A1-H.1, IC50, 27 h, ± SD. The procedure:
(§1) P. falciparum (3D7 clone) and P. knowlesi (A1-H.1 clone) were maintained in culture in RPMI 1640 supplemented with 25 mM HEPES, 25 mM NaHCO3, 10 mM D-glucose, 2 mM L-glutamine, 50 mg/L hypoxanthine, 25 mg/L gentamicin sulfate, 5 g/L Albumax II, and 10% (v/v) equine serum (Thermo Fisher Scientific, 26-050-088). The P. falciparum (3D7) and P. knowlesi (A1-H.1) parasites were grown in human A^+ red blood cells (National Health Blood and Transplant, United Kingdom). The parasites were incubated in sealed flasks at 37°C under a culture gas mixture of 96% N2, 3% CO2, and 1% O2. ([van Schalkwyk et al., 2019]). The compounds were initially dissolved in DMSO prior to diluting in RPMI. All experiments were initiated using unsynchronized parasites with both the parasitemia and hematocrit set to 1%. Drug susceptibility assays were set up in 96-well, flat-bottom microplates in a final volume of 200 μL, as described previously ([van Schalkwyk et al., 2017]). The controls were included for the background fluorescence (0% viability; parasites exposed to a supralethal 10 μM chloroquine concentration) and 100% growth (parasites in drug-free wells). The plates were incubated for one complete life cycle (27 h for P. knowlesi or 48 h for P. falciparum in vitro) at 37°C in a modular incubation chamber (Billups-Rothenburg Inc.) under the culture gas. Upon termination of the assay, the plates were stored at −20°C overnight. The SYBR Green I fluorescent method was used to measure parasite survival ([Bennett et al., 2004]; [Smilkstein et al., 2004]). After the microplates were thawed, 100 μL from each well was transferred into a duplicate plate. To this was added 100 μL of SYBR green solution [SYBR Green I (Thermo Fisher Scientific, S7563), diluted 1:5000 in a lysis buffer made of 20 mM Tris, 5 mM EDTA, 0.008% (w/v) saponin, 0.08% (v/v) Triton X-100, pH 7.5]. The plates were stored in the dark for 1 h before fluorescence was read at a 490 nm excitation wavelength and a 520 nm emission wavelength on a Spectramax M3 microplate reader (Molecular Devices) ([van Schalkwyk et al., 2017]). The background fluorescence (wells with parasites at 0% viability) was subtracted from all drug assay wells, and the parasite proliferation was determined as a percentage of the fluorescence in the drug-free control wells.

For the next test, the system named is A2780/WT cells. The test is described as follows: Chemosensitivity MTT assay, A2780 wild type. In kind it is cell-based, human. Particulars: Homo sapiens, A2780, 96 h, ± SE, read-out: Activity against A2780/WT cells, IC50. Here is the method: (§2) The chemosensitivity of compounds 3–6 was assessed in the wild-type immortalized human ovarian adenocarcinoma cell line A2780 and its daughter cell lines, which are resistant to the standard cancer chemotherapeutics doxorubicin (A2780/ADR) and cisplatin (A2780/CIS, all cell lines from ECACC, Salisbury, United Kingdom). A modified MTT assay was used ([Shnyder et al., 2008]). Cells (2 × 10^4/ml) were inoculated into each well of a 96-well plate and incubated for 24 h at 37°C in a humidified atmosphere containing 5% CO2. Compounds were then added at a range of concentrations to each well, and the plates were then incubated for a further 96 h. After 96 h, the culture medium was removed and 200 μL of 0.5 mg ml^–1 MTT solution (Sigma) in the complete medium was added to each well. Following a further 4 h incubation, the solution was removed from each well and 150 μL of DMSO was added to solubilize the formazan crystals resulting from MTT conversion. The absorbance values for the resulting solutions were read at 540 nm on an Azure 96-well microplate reader (Azure Biosynstems Inc.), and the cell survival was calculated as the absorbance of treated cells divided by the control.
(In general: Formazan colour is commonly taken as a measure of viable cells.)

The subject of test [1] is P. falciparum (NF54-Mal8p1.16-GFP-Luc) late-stage gametocytes. The test is described as follows: microbe, parasite or virus in culture. It counts as cell-based, Plasmodium falciparum. The conditions noted are these: Plasmodium falciparum, NF54, 48 h, read-out: Activity against late-stage gametocytes IC50. The procedure:
Gametocytes were produced as per [Reader et al. (2015]; [2021)] from P. falciparum NF54-Mal8p1.16-GFP-Luc ([Adjalley et al., 2011]), and each batch was validated for viability and functionality before use. […] Drug assays were set up on day 10 (representing late gametocytes, >90% stage IV/V gametocytes) using a 2–3% gametocytemia, 1.5% hematocrit culture. The drug pressure was for 48 h under stationary, hypoxic conditions (90% N2, 5% O2, and 5% CO2) at 37°C. Luciferase activity was determined in 30 μL parasite lysates by adding 30 μL luciferin substrate (Promega Luciferase Assay System) at room temperature and detection of resultant bioluminescence at an integration constant of 10 s with the GloMax®-Multi + Detection System with Instinct® Software. Methylene blue (5 μM) and an internal control (MMV390048, 5 μM) were routinely included as controls.

The test system of test [2] is P. falciparum gametocytes. Also on record: method as in Forkuo et al., 2017. The conditions noted are these: ref Forkuo et al., 2017; read-out: IC50 against gametocytes, previous data; cited from earlier work.
Test [3] relates to T. brucei bloodstream forms (strain 427, derivative 221). Particulars: ref Oluwafemi et al. 2009; read-out: Activity against T. brucei IC50; cited from earlier work.
The test system of another test is A2780/cis cells. In words: Chemosensitivity MTT assay, cisplatin-resistant A2780/CIS. It counts as cell-based, human. The conditions noted are these: Homo sapiens, A2780cis, 96 h, ± SE, read-out: Activity against A2780/cis cells, IC50. Here is the method: as §2
Another test concerns P. falciparum 3D7. The test is described as follows: In vitro antiplasmodial activity, P. falciparum 3D7 (SYBR Green I). Particulars: Plasmodium falciparum; chloroquine-sensitive strain 3D7, 48 h; read-out: Activity against P. falciparum 3D7, IC50. It counts as cell-based. Here is the method: as §1
A further test concerns P. falciparum K1. The test is described as follows: In vitro antiplasmodial activity, P. falciparum K1 (lactate dehydrogenase assay). It counts as cell-based, Plasmodium falciparum. Particulars: Plasmodium falciparum; chloroquine-resistant strain K1, 48 h, mean ± SE; read-out: Activity against P. falciparum K1, IC50. The procedure:
P. falciparum (K1 clone) was maintained in human erythrocytes prepared from the donated blood samples (blood groups unknown, Ethical Tissue, University of Bradford), suspended in the RPMI 1640 medium as previously described ([Wright et al., 2001]), except that serum was replaced with Albumax II, [5% (^w/v)]. […] Twofold serial dilutions were made in 96-well microtiter plates in duplicate, and infected erythrocytes were added to give a final volume of 100 µL with 2.5% hematocrit and 1% parasitemia. Chloroquine diphosphate was used as a positive control, and uninfected and infected erythrocytes without compounds were included in each test. The plates were placed into a modular incubator; gassed with 93% nitrogen, 3% oxygen, and 4% carbon dioxide; and incubated at 37°C for 48 h. The parasite growth was assessed by measuring lactate dehydrogenase activity as described by [Makler et al. (1993)]. The reagent used contained the following in each mL: acetylpyridine adenine dinucleotide (APAD), 0.74 mg; lithium lactate, 19.2 mg; diaphorase, 0.1 mg; Triton X-100, 2 μL; nitroblue tetrazolium, 1 mg; and phenazine ethosulphate, 0.5 mg. Fifty microliter of this reagent was added to each well and mixed; plates were incubated for 15 min at 37°C. The optical densities were read at 550 nm using an Azure 96-well microplate reader (Azure Biosystems Inc.), and % inhibition of growth was calculated by comparison with the control values. IC50 values were determined using linear regression analysis (Microsoft Excel). A minimum of three separate determinations was carried out for each compound.

Another test concerns A2780/ADR cells. The test is described as follows: Chemosensitivity MTT assay, doxorubicin-resistant A2780/ADR. The conditions noted are these: Homo sapiens, 96 h, ± SE, read-out: Activity against A2780/ADR cells, IC50. In kind it is cell-based. Here is the method:
as §2, with “A” for “The chemosensitivity of compounds 3–6 was assessed in the wild-type immortalized human ovarian adenocarcinoma cell line A2780 and its daughter cell lines, which are resistant to the standard cancer chemotherapeutics doxorubicin (A2780/ADR) and cisplatin (A2780/CIS, all cell lines from ECACC, Salisbury, United Kingdom). A”

The subject of another test is P. berghei. Particulars: P. berghei in mice, oral, 50 mg/kg/day; ref Wright et al., 1996; cited from earlier work.

Regarding `Cn1c2c3ccccc3nc-2cc2ccccc21` [Compound 1, cryptolepine], the IC50 is 1040 ± 23 nM with P. knowlesi A1-H.1; 440 ± 200 nM with A2780/WT cells; 2400 ± 300 nM in [1]; 1970 nM in test [2]; 306 nM in test [3]; 670 ± 390 nM in the test with A2780/cis cells. Also, the values for the IC50 in the test on P. falciparum 3D7, in the test on P. falciparum K1 and with A2780/ADR cells were 460 ± 40 nM, 440 ± 220 nM and 1270 ± 600 nM, respectively. The “Suppression of parasitemia compared to untreated infected controls” value with P. berghei is 80.5%.
